Test results from US20070128217A1 (priority 2003, published 2007).

What was measured:
[1] = tested on: rabbit serum obtained by immunizing a rabbit with the SARS-CoV strain Frankfurt 1; format: binding; set-up: Binding of a rabbit serum to linear peptides / Binding of a rabbit serum to looped peptides / Rabbit serum linear peptides / Rabbit serum looped peptides / Binding of a rabbit serum to linear peptides of protein N of SARS-CoV Urbani (Rabbit serum linear peptides) / Binding of a rabbit serum to looped/cyclic peptides of protein N of SARS-CoV Urbani (Rabbit serum looped peptides): unit not given here
[2] = tested on: antibodies in sera from SARS patients (sera 1a, 1b, 2, 6, 37, 62, London, SARS-yellow, SARS-green); format: binding, human; set-up: Binding of serum 6 to linear peptides of protein X1 of SARS-CoV Urbani / Binding of serum 37 to linear peptides of protein X1 of SARS-CoV Urbani / Binding of serum 6 to looped/cyclic peptide (PEPSCAN-ELISA) / Binding of serum 37 to looped/cyclic peptide (PEPSCAN-ELISA) / Binding of serum 37 to looped/cyclic peptides of protein X1 of SARS-CoV Urbani / Binding of serum 6 to linear peptides of protein X2 / Binding of serum 37 to linear peptides of protein X2 / Binding of serum 37 to looped/cyclic peptides of protein X2 of SARS-CoV Urbani / Binding of serum 6 to linear peptides of protein M of SARS-CoV Urbani / Binding of serum 37 to linear peptides of protein M of SARS-CoV Urbani / Binding of serum 6 to looped/cyclic peptides of protein M of SARS-CoV Urbani / Binding of serum 37 to looped/cyclic peptides of protein M of SARS-CoV Urbani / Binding of serum 6 to linear peptides of protein X3 of SARS-CoV Urbani / Binding of serum 37 to linear peptides of protein X3 of SARS-CoV Urbani / Binding of serum 37 to looped/cyclic peptides of protein X3 of SARS-CoV Urbani / Binding of serum 6 to linear peptides of protein X4 of SARS-CoV Urbani / Binding of serum 37 to linear peptides of protein X4 of SARS-CoV Urbani / Binding of serum 37 to looped/cyclic peptides of protein X4 of SARS-CoV Urbani / Binding of serum 6 to linear peptides of protein X5 of SARS-CoV Urbani / Binding of serum 37 to linear peptides of protein X5 of SARS-CoV Urbani / Binding of serum 37 to looped/cyclic peptides of protein X5 of SARS-CoV Urbani / Binding of serum 6 to linear peptides of protein N of SARS-CoV Urbani / Binding of serum 37 to linear peptides of protein N of SARS-CoV Urbani / Binding of serum 6 to linear peptide (PEPSCAN-ELISA) / Binding of serum 1a to looped/cyclic peptides of protein N of SARS-CoV Urbani / Binding of serum 1b to looped/cyclic peptides of protein N of SARS-CoV Urbani / Binding of serum 2 to looped/cyclic peptides of protein N of SARS-CoV Urbani / Binding of serum 6 to looped/cyclic peptides of protein N of SARS-CoV Urbani / Binding of serum 37 to looped/cyclic peptides of protein N of SARS-CoV Urbani / Binding of serum 62 to looped/cyclic peptides of protein N of SARS-CoV Urbani / Binding of serum London to looped/cyclic peptides of protein N of SARS-CoV Urbani / Binding of serum SARS-green to looped/cyclic peptides of protein N of SARS-CoV Urbani: unit not given here
[3] = tested on: control sera (pooled serum of ten healthy LUMC hospital workers; commercial negative donor pooled serum from the Dutch bloodbank); format: binding, human; set-up: Binding of Control serum LUMC to linear peptides / Binding of Control serum Blood-bank to linear peptides / Binding of Control serum LUMC to looped peptides / Binding of Control Serum Blood-Bank to Looped peptides / Binding of Control serum LUMC to linear peptides of the protein M of SARS-CoV Urbani / Binding of Control serum Blood-bank to linear peptides of the protein M of SARS-CoV Urbani / Binding of Control serum LUMC to looped peptides of the protein M of SARS-CoV Urbani / Binding of Control Serum Blood-Bank to Looped peptides of the protein M of SARS-CoV Urbani: unit not given here

## WIQFMMSRRRLLACL
[1]
  Binding of a rabbit serum to linear peptides: 0.5
  Binding of a rabbit serum to looped peptides: 1.3
[2]
  Binding of serum 1a to linear peptides of protein X2: 0.6
  Binding of serum 1a to looped/cyclic peptides of protein X2 of SARS-CoV Urbani: 0.4
  Binding of serum 1b to linear peptides of protein X2: 0.4
  Binding of serum 1b to looped/cyclic peptides of protein X2 of SARS-CoV Urbani: 0.3
  Binding of serum 2 to linear peptides of protein X2: 0.4
  Binding of serum 2 to looped/cyclic peptides of protein X2 of SARS-CoV Urbani: 0.1
  Binding of serum 6 to linear peptides of protein X2: 0.5
  Binding of serum 6 to looped/cyclic peptides of protein X2 of SARS-CoV Urbani: 0.3
  Binding of serum 37 to linear peptides of protein X2: 0.5
  Binding of serum 37 to looped/cyclic peptides of protein X2 of SARS-CoV Urbani: 0.3
  Binding of serum 62 to linear peptides of protein X2: 0.6
  Binding of serum 62 to looped/cyclic peptides of protein X2 of SARS-CoV Urbani: 0.3
  Binding of serum London to linear peptides of protein X2: 0.5
  Binding of serum London to looped/cyclic peptides of protein X2 of SARS-CoV Urbani: 0.3
  Binding of serum SARS-green to linear peptides of protein X2: 0.5
  Binding of serum SARS-green to looped/cyclic peptides of protein X2 of SARS-CoV Urbani: 0.2
  Binding of serum SARS-yellow to linear peptides of protein X2: 0.7
  Binding of serum SARS-yellow to looped/cyclic peptides of protein X2 of SARS-CoV Urbani: 0.4
[3]
  Binding of Control Serum Blood-Bank to Looped peptides: 0.3
  Binding of Control serum Blood-bank to linear peptides: 0.6
  Binding of Control serum LUMC to linear peptides: 0.4
  Binding of Control serum LUMC to looped peptides: 0.3

## WLVIGVAFLAVFQSA
[1]
  Binding of a rabbit serum to linear peptides: 0.5
  Binding of a rabbit serum to looped peptides: 0.5
[2]
  Binding of serum 1a to linear peptides of protein X1 of SARS-CoV Urbani: 0.6
  Binding of serum 1a to looped/cyclic peptide (PEPSCAN-ELISA): 0.5
  Binding of serum 1b to linear peptides of protein X1 of SARS-CoV Urbani: 0.5
  Binding of serum 1b to looped/cyclic peptide (PEPSCAN-ELISA): 0.3
  Binding of serum 2 to linear peptides of protein X1 of SARS-CoV Urbani: 0.5
  Binding of serum 2 to looped/cyclic peptide (PEPSCAN-ELISA): 0.4
  Binding of serum 6 to linear peptides of protein X1 of SARS-CoV Urbani: 0.4
  Binding of serum 6 to looped/cyclic peptide (PEPSCAN-ELISA): 0.2
  Binding of serum 37 to linear peptides of protein X1 of SARS-CoV Urbani: 0.7
  Binding of serum 37 to looped/cyclic peptide (PEPSCAN-ELISA): 0.5
  Binding of serum 62 to linear peptides of protein X1 of SARS-CoV Urbani: 0.6
  Binding of serum 62 to looped/cyclic peptide (PEPSCAN-ELISA): 0.5
  Binding of serum London to linear peptides of protein X1 of SARS-CoV Urbani: 0.3
  Binding of serum London to looped/cyclic peptide (PEPSCAN-ELISA): 0.2
  Binding of serum SARS-green to linear peptides of protein X1 of SARS-CoV Urbani: 0.3
  Binding of serum SARS-green to looped/cyclic peptide (PEPSCAN-ELISA): 0.2
  Binding of serum SARS-yellow to linear peptides of protein X1 of SARS-CoV Urbani: 0.4
  Binding of serum SARS-yellow to looped/cyclic peptide (PEPSCAN-ELISA): 0.5
[3]
  Binding of Control Serum Blood-Bank to Looped peptides: 0.5
  Binding of Control serum Blood-bank to linear peptides: 0.6
  Binding of Control serum LUMC to linear peptides: 0.6
  Binding of Control serum LUMC to looped peptides: 0.5

## WNLVIGFLFLAWIML
[1]
  Rabbit serum linear peptides: 0.2
  Rabbit serum looped peptides: 0.3
[2]
  Binding of serum 1a to linear peptides of protein M of SARS-CoV Urbani: 0.7
  Binding of serum 1a to looped/cyclic peptides of protein M of SARS-CoV Urbani: 0.6
  Binding of serum 1b to linear peptides of protein M of SARS-CoV Urbani: 0.6
  Binding of serum 1b to looped/cyclic peptides of protein M of SARS-CoV Urbani: 0.5
  Binding of serum 2 to linear peptides of protein M of SARS-CoV Urbani: 0.4
  Binding of serum 2 to looped/cyclic peptides of protein M of SARS-CoV Urbani: 0.6
  Binding of serum 6 to linear peptides of protein M of SARS-CoV Urbani: 0.3
  Binding of serum 6 to looped/cyclic peptides of protein M of SARS-CoV Urbani: 0.4
  Binding of serum 37 to linear peptides of protein M of SARS-CoV Urbani: 0.4
  Binding of serum 37 to looped/cyclic peptides of protein M of SARS-CoV Urbani: 0.6
  Binding of serum 62 to linear peptides of protein M of SARS-CoV Urbani: 0.4
  Binding of serum 62 to looped/cyclic peptides of protein M of SARS-CoV Urbani: 0.6
  Binding of serum London to linear peptides of protein M of SARS-CoV Urbani: 0.3
  Binding of serum London to looped/cyclic peptides of protein M of SARS-CoV Urbani: 0.2
  Binding of serum SARS-green to linear peptides of protein M of SARS-CoV Urbani: 0.4
  Binding of serum SARS-green to looped/cyclic peptides of protein M of SARS-CoV Urbani: 0.3
  Binding of serum SARS-yellow to linear peptides of protein M of SARS-CoV Urbani: 0.2
  Binding of serum SARS-yellow to looped/cyclic peptides of protein M of SARS-CoV Urbani: 0.7
[3]
  Binding of Control Serum Blood-Bank to Looped peptides of the protein M of SARS-CoV Urbani: 0.5
  Binding of Control serum Blood-bank to linear peptides of the protein M of SARS-CoV Urbani: 0.6
  Binding of Control serum LUMC to linear peptides of the protein M of SARS-CoV Urbani: 0.6
  Binding of Control serum LUMC to looped peptides of the protein M of SARS-CoV Urbani: 0.7

## WSFNPETNILLNVPL
[1]
  Rabbit serum linear peptides: 0.3
  Rabbit serum looped peptides: 0.3
[2]
  Binding of serum 1a to linear peptides of protein M of SARS-CoV Urbani: 1.5
  Binding of serum 1a to looped/cyclic peptides of protein M of SARS-CoV Urbani: 0.8
  Binding of serum 1b to linear peptides of protein M of SARS-CoV Urbani: 1.7
  Binding of serum 1b to looped/cyclic peptides of protein M of SARS-CoV Urbani: 0.5
  Binding of serum 2 to linear peptides of protein M of SARS-CoV Urbani: 1.3
  Binding of serum 2 to looped/cyclic peptides of protein M of SARS-CoV Urbani: 0.6
  Binding of serum 6 to linear peptides of protein M of SARS-CoV Urbani: 1.0
  Binding of serum 6 to looped/cyclic peptides of protein M of SARS-CoV Urbani: 0.5
  Binding of serum 37 to linear peptides of protein M of SARS-CoV Urbani: 0.9
  Binding of serum 37 to looped/cyclic peptides of protein M of SARS-CoV Urbani: 0.7
  Binding of serum 62 to linear peptides of protein M of SARS-CoV Urbani: 1.3
  Binding of serum 62 to looped/cyclic peptides of protein M of SARS-CoV Urbani: 0.7
  Binding of serum London to linear peptides of protein M of SARS-CoV Urbani: 1.0
  Binding of serum London to looped/cyclic peptides of protein M of SARS-CoV Urbani: 0.2
  Binding of serum SARS-green to linear peptides of protein M of SARS-CoV Urbani: 1.5
  Binding of serum SARS-green to looped/cyclic peptides of protein M of SARS-CoV Urbani: 0.2
  Binding of serum SARS-yellow to linear peptides of protein M of SARS-CoV Urbani: 1.1
  Binding of serum SARS-yellow to looped/cyclic peptides of protein M of SARS-CoV Urbani: 0.8
[3]
  Binding of Control Serum Blood-Bank to Looped peptides of the protein M of SARS-CoV Urbani: 0.6
  Binding of Control serum Blood-bank to linear peptides of the protein M of SARS-CoV Urbani: 1.3
  Binding of Control serum LUMC to linear peptides of the protein M of SARS-CoV Urbani: 1.5
  Binding of Control serum LUMC to looped peptides of the protein M of SARS-CoV Urbani: 0.8

## YALIYFLQCINACRI
[1]
  Binding of a rabbit serum to linear peptides: 0.1
  Binding of a rabbit serum to looped peptides: 0.0
[2]
  Binding of serum 1a to linear peptides of protein X1 of SARS-CoV Urbani: 0.7
  Binding of serum 1a to looped/cyclic peptide (PEPSCAN-ELISA): 0.2
  Binding of serum 1b to linear peptides of protein X1 of SARS-CoV Urbani: 0.5
  Binding of serum 1b to looped/cyclic peptide (PEPSCAN-ELISA): 0.1
  Binding of serum 2 to linear peptides of protein X1 of SARS-CoV Urbani: 0.5
  Binding of serum 2 to looped/cyclic peptide (PEPSCAN-ELISA): 0.1
  Binding of serum 6 to linear peptides of protein X1 of SARS-CoV Urbani: 0.4
  Binding of serum 6 to looped/cyclic peptide (PEPSCAN-ELISA): 0.0
  Binding of serum 37 to linear peptides of protein X1 of SARS-CoV Urbani: 0.6
  Binding of serum 37 to looped/cyclic peptide (PEPSCAN-ELISA): 0.1
  Binding of serum 62 to linear peptides of protein X1 of SARS-CoV Urbani: 0.6
  Binding of serum 62 to looped/cyclic peptide (PEPSCAN-ELISA): 0.2
  Binding of serum London to linear peptides of protein X1 of SARS-CoV Urbani: 0.3
  Binding of serum London to looped/cyclic peptide (PEPSCAN-ELISA): 0.1
  Binding of serum SARS-green to linear peptides of protein X1 of SARS-CoV Urbani: 0.2
  Binding of serum SARS-green to looped/cyclic peptide (PEPSCAN-ELISA): 0.2
  Binding of serum SARS-yellow to linear peptides of protein X1 of SARS-CoV Urbani: 0.4
  Binding of serum SARS-yellow to looped/cyclic peptide (PEPSCAN-ELISA): 0.0
[3]
  Binding of Control Serum Blood-Bank to Looped peptides: 0.3
  Binding of Control serum Blood-bank to linear peptides: 0.6
  Binding of Control serum LUMC to linear peptides: 0.6
  Binding of Control serum LUMC to looped peptides: 0.2
